Measurements from ChEMBL document CHEMBL5370593, “Discovery and In Vitro Characterization of SPL028: Deuterated N,N-Dimethyltryptamine” (ACS Med Chem Lett, 2023).

Key:
[1] = biological target: T1, Alpha-2A adrenergic receptor (Homo sapiens, UniProt P08913); assay: Displacement of [3H]-rauwolscine from human recombinant adrenergic alpha-2A receptor expressed in CHO-K1 cells assessed as inhibition constant incubated for 60 mins by spectrophotometric analysis; format: cell-based
T1 sequence (P08913 whole entry): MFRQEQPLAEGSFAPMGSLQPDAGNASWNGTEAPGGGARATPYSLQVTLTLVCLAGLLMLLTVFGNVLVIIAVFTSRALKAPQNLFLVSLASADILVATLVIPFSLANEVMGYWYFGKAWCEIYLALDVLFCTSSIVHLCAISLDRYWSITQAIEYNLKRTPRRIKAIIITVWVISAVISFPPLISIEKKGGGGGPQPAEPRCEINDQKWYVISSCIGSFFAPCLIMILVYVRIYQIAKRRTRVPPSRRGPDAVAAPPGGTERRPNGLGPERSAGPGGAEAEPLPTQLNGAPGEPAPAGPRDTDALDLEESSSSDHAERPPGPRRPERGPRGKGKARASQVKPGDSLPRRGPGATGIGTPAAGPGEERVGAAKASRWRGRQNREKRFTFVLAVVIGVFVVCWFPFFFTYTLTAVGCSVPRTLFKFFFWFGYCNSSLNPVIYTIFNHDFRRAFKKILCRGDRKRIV

[2] = biological target: T2, Alpha-1D adrenergic receptor (Homo sapiens, UniProt P25100); assay: Displacement of [3H] prazosin from human recombinant adrenergic alpha-1d receptor expressed in HEK293 cells assessed as inhibition constant incubated for 60 mins by spectrophotometric analysis; format: cell-based
T2 sequence (P25100 whole entry): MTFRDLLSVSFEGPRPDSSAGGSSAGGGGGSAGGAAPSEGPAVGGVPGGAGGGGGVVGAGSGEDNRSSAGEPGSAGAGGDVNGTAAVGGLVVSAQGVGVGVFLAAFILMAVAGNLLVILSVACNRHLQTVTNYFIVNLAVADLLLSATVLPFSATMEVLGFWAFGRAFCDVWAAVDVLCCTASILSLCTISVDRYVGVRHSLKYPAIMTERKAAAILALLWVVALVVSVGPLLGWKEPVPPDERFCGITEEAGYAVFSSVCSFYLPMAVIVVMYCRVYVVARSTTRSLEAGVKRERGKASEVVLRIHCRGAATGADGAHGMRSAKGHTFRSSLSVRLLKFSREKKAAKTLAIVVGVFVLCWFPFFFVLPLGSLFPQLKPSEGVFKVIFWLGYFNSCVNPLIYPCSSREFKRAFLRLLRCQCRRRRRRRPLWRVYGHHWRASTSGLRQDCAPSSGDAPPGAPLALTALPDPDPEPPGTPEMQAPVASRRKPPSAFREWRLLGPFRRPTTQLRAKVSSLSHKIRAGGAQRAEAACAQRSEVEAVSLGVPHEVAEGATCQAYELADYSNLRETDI

[3] = biological target: 5-hydroxytryptamine receptor 5A (Homo sapiens, UniProt P47898); assay: Displacement of [3H] LSD from human recombinant 5-HT5A receptor expressed in CHO-K1 cells incubated for 60 mins by spectrophotometric analysis; format: cell-based
[4] = biological target: T3, Alpha-1B adrenergic receptor (Homo sapiens, UniProt P35368); assay: Displacement of [3H] prazosin from human recombinant adrenergic alpha-1b receptor expressed in […] cells incubated for 60 mins by spectrophotometric analysis; format: cell-based
T3 sequence (P35368 whole entry): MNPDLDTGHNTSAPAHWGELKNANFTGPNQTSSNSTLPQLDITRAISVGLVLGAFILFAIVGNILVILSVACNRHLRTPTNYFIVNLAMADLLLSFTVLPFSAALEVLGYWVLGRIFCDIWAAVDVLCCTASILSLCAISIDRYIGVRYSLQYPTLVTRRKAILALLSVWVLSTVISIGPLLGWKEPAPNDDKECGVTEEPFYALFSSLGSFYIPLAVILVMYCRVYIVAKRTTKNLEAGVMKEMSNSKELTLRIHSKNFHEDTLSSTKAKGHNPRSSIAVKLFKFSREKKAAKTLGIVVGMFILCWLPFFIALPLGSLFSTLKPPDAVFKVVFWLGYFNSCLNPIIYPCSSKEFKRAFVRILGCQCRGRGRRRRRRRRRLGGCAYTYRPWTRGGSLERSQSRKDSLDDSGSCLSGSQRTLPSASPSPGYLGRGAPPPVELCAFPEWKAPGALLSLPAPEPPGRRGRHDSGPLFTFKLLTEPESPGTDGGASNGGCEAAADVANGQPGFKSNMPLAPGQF

[5] = biological target: MAO-A (Homo sapiens, UniProt P21397); assay: Inhibition of human recombinant MAO-A expressed in insect cells assessed as inhibition of 4-hydroxyquinoline formation at 10 uM using kynuramine as substrate incubated for 75 mins by spectrophotometric analysis relative to control; set-up: species or system Insect cell; settings: probe kynuramine
[6] = biological target: T4, Alpha-1A adrenergic receptor (Homo sapiens, UniProt P35348); assay: Displacement of [3H] prazosin from human recombinant adrenergic alpha-1a receptor expressed in […] cells incubated for 60 mins by spectrophotometric analysis; format: cell-based
T4 sequence (P35348 whole entry): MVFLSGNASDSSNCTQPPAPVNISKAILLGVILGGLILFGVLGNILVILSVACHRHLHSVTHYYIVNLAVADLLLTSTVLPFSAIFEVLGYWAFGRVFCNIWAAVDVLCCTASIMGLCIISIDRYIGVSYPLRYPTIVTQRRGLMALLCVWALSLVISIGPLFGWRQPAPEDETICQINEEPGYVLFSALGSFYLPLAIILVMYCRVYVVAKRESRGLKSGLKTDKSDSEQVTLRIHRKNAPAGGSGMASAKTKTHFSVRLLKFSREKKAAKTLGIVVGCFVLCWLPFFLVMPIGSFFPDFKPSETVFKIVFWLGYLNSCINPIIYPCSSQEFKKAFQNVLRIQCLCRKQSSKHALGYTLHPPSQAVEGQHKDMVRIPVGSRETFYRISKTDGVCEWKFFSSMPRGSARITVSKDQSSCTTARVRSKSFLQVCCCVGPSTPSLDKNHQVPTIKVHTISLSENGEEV

[7] = biological target: T4, Alpha-1A adrenergic receptor; assay: Displacement of [3H] prazosin from human recombinant adrenergic alpha-1a receptor expressed in […] cells assessed as inhibition constant incubated for 60 mins by spectrophotometric analysis; format: cell-based
[8] = Metabolic stability in human liver mitochondrial fraction assessed as mean half life measured per million cells incubated upto 60 mins by LC-MS/MS analysis; format: ADME, mitochondria, Mitochondria
[9] = biological target: 5-hydroxytryptamine receptor 1B (Homo sapiens, UniProt P28222); assay: Displacement of [3H] GR125743 from human recombinant 5-HT1B receptor expressed in […] cells assessed as inhibition constant incubated for 90 mins by spectrophotometric analysis; format: cell-based
[10] = biological target: T5, 5-hydroxytryptamine receptor 7 (Homo sapiens, UniProt P34969); assay: Displacement of [3H] LSD from human recombinant 5-HT7 receptor expressed in CHO-K1 cells assessed as inhibition constant incubated for 120 mins by spectrophotometric analysis; format: cell-based
[11] = biological target: T5, 5-hydroxytryptamine receptor 7; assay: Displacement of [3H] LSD from human recombinant 5-HT7 receptor expressed in CHO-K1 cells incubated for 120 mins by spectrophotometric analysis; format: cell-based
[12] = Displacement of [3H] idazoxan from imidazoline receptor 2 (unknown origin) by spectrophotometric analysis; set-up: species or system Homo sapiens
[13] = biological target: Neuronal acetylcholine receptor; alpha3/beta4 (Homo sapiens, UniProt P30926+P32297); assay: Displacement of [125I]-epibatidine from human recombinant nAChR alpha3beta4 receptor expressed in CHO-K1 cells assessed as inhibition constant incubated for 60 mins by spectrophotometric analysis; format: cell-based
Neuronal acetylcholine receptor; alpha3/beta4, sequence (P30926 whole entry): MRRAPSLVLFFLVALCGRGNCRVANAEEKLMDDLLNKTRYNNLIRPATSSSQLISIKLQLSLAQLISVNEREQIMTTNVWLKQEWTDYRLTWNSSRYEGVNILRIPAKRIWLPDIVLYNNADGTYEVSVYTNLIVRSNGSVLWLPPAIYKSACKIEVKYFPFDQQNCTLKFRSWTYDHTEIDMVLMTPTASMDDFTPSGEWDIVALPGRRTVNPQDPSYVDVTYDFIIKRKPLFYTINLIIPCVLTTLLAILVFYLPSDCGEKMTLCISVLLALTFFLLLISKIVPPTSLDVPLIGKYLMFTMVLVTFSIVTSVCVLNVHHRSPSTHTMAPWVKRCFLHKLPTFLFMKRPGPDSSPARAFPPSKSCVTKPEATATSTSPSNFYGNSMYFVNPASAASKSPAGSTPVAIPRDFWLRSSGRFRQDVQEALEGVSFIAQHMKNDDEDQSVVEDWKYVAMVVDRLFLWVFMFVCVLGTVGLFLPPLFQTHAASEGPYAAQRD
Neuronal acetylcholine receptor; alpha3/beta4, sequence (P32297 whole entry): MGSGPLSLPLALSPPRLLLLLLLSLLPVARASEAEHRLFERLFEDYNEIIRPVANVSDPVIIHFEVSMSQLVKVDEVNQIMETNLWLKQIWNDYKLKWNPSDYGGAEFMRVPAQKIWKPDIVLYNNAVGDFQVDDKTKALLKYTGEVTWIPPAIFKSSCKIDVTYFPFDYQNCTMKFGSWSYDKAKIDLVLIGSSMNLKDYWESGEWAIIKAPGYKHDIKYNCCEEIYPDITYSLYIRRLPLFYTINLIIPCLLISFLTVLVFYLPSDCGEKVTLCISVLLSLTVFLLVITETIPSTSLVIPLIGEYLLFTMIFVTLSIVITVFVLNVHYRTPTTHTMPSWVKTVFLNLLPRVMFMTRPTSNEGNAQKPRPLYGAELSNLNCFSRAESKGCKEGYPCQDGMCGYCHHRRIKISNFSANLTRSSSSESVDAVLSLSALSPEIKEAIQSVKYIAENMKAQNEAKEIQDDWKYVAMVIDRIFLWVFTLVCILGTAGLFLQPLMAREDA

T5 sequence (P34969 whole entry): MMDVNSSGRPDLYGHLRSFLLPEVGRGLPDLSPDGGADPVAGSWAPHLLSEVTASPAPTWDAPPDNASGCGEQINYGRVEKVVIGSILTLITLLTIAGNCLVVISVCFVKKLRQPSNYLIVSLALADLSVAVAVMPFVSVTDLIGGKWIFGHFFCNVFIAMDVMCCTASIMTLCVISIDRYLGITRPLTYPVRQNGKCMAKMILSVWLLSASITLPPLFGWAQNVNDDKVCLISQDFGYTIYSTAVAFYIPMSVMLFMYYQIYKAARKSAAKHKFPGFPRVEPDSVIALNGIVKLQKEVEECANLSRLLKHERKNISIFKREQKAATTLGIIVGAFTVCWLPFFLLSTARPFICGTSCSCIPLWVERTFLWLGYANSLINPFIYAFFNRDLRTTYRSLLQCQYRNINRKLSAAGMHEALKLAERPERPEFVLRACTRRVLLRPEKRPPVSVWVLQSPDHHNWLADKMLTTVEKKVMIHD
5-hydroxytryptamine receptor 1B, sequence (P28222 whole entry): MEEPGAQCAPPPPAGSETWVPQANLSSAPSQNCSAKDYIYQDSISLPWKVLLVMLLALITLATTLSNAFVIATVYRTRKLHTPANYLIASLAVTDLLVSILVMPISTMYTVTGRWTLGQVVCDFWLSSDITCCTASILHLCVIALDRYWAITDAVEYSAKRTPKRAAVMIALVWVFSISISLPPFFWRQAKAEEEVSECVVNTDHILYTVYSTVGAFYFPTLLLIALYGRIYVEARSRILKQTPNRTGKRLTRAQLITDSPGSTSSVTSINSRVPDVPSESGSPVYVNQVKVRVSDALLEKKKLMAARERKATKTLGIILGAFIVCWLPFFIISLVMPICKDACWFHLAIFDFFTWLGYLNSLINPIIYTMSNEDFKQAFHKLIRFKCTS
MAO-A, sequence (P21397 whole entry): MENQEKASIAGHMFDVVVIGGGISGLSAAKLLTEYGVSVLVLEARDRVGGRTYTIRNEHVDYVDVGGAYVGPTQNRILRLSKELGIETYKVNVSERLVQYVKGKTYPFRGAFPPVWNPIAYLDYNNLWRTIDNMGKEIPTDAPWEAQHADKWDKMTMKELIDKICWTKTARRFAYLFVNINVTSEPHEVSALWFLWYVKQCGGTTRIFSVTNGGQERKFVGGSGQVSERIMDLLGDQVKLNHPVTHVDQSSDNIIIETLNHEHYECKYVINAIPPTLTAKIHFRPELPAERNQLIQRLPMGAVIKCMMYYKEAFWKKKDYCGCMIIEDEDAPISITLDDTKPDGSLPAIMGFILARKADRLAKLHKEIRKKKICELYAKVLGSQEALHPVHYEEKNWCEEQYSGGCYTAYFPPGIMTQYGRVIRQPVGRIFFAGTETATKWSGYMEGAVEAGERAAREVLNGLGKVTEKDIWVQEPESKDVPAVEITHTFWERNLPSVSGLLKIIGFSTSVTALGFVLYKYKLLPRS
5-hydroxytryptamine receptor 5A, sequence (P47898 whole entry): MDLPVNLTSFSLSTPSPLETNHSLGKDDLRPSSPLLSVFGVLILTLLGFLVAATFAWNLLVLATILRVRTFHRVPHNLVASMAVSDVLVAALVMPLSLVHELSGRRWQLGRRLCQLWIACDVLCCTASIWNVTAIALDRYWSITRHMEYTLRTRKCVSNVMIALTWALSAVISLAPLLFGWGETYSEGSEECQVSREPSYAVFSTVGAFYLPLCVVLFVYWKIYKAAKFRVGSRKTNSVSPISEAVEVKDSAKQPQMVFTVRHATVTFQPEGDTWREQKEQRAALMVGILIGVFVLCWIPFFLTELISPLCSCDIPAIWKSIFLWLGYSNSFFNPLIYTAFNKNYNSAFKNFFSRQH

SMILES: CN(C)CCc1c[nH]c2ccccc12.O=C(O)/C=C/C(=O)O
- Ki [1]: 1.11 µM
- Ki [2]: 1.51 µM
- IC50 [3]: 3.32 µM
- IC50 [4]: 0.67 µM
- inhibition at 1.25 h, 10 µM [5]: 85.3%
- IC50 [6]: 0.58 µM
- Ki [7]: 0.28 µM
- half-life [8]: 8.3 min
- Ki [9]: 1.84 µM
- Ki [10]: 0.07 µM
- IC50 [11]: 0.12 µM
- IC50 [12]: 1.93 µM
- Ki [13]: 3.03 µM

SMILES: O=C(O)/C=C/C(=O)O.[2H]C([2H])(Cc1c[nH]c2ccccc12)N(C)C
- Ki [1]: 1.52 µM
- Ki [2]: 1.6 µM
- IC50 [3]: 3.32 µM
- IC50 [4]: 0.93 µM
- inhibition at 1.25 h, 10 µM [5]: 84.3%
- IC50 [6]: 0.99 µM
- Ki [7]: 0.48 µM
- half-life [8]: 85.1 min
- Ki [9]: 1.52 µM
- Ki [10]: 0.05 µM
- IC50 [11]: 0.09 µM
- IC50 [12]: 2.6 µM
- Ki [13]: 3.18 µM
